Results reported in article PMC6222718, “Ethylenediamine Derived Carboxamides of Betulinic and Ursolic Acid as Potential Cytotoxic Agents” (Molecules : A Journal of Synthetic Chemistry and Natural …, 2018).
Counter-ions that a name gives are not always drawn.

What was measured:
[1] = tested on: HT29 (colon adenocarcinoma); test: SRB cytotoxicity assay, HT29; assay type: cell-based, human; conditions: for EC50: Homo sapiens, HT-29, SRB assay, 96 h of treatment, HT29; for Selectivity index (SI) HT29: SI = EC50 (NIH 3T3)/EC50 (HT29)
Method: (§1) The cytotoxicity of ursolic and betulinic carboxamides 3–30 was determined in sulforhodamine B (SRB) assays.
(§2) The cell lines used were human cancer cell lines: 518A2 (melanoma), A2780 (ovarian carcinoma), HT29 (colon adenocarcinoma), MCF-7 (breast adenocarcinoma), 8505C (thyroid carcinoma) and non-malignant mouse fibroblasts NIH 3T3. Cultures were maintained as monolayers in RPMI 1640 medium with L-glutamine (Capricorn Scientific GmbH, Ebsdorfergrund, Germany) supplemented with 10% heat inactivated fetal bovineserum (Sigma-Aldrich Chemie GmbH, Steinheim, Germany) and penicillin/streptomycin (Capricorn Scientific GmbH, Ebsdorfergrund, Germany) at 37 °C in a humidified atmosphere with 5% CO2.
(§3) The cytotoxicity of the compounds was evaluated using the sulforhodamine-B (Kiton-Red S, ABCR) micro culture colorimetric assay. Cells were seeded into 96-well plates on day 0 at appropriate cell densities to prevent confluence of the cells during the period of experiment. After 24 h, the cells were treated with 6 different concentrations (1, 3, 7, 12, 20 and 30 µM) minimum. The final concentration of DMSO/DMF never exceeded 0.5%, which was non-toxic to the cells. After a 96 h treatment, the supernatant medium from the 96-well plates was discarded, the cells were fixed with 10% trichloroacetic acid (TCA) and allowed to rest at 4 °C. After 24 h fixation, the cells were washed in a strip washer and dyed with SRB solution (100 µL, 0.4% in 1% acetic acid) for about 20 min. After dying, the plates were washed four times with 1% acetic acid to remove the excess of the dye and allowed to air-dry overnight. Tris base solution (200 µL, 10 mM) was added to each well and absorbance was measured at λ = 570 nm using a 96-well plate reader (Tecan Spectra, Crailsheim, Germany). The EC50 values were averaged from three independent experiments performed each in triplicate calculated from semi logarithmic dose response curves applying a non-linear 4P Hills-slope equation (GraphPad Prism5; variables top and bottom were set to 100 and 0, respectively).

[2] = tested on: 8505C (thyroid carcinoma); test: SRB cytotoxicity assay, 8505C; assay type: cell-based, human; conditions: for EC50: Homo sapiens, SRB assay, 96 h of treatment, 8505C; for Selectivity index (SI) 8505C: SI = EC50 (NIH 3T3)/EC50 (8505C)
Method: as §1, §2, §3

518A2 (melanoma) = test: SRB cytotoxicity assay, 518A2; assay type: cell-based, human; conditions: for EC50: Homo sapiens, SRB assay, 96 h of treatment, 518A2; for Selectivity index (SI) 518A2: SI = EC50 (NIH 3T3)/EC50 (518A2)
Method: as §1, §2, §3

[3] = tested on: MCF-7 (breast adenocarcinoma); test: SRB cytotoxicity assay, MCF-7; assay type: cell-based, human; conditions: for EC50: Homo sapiens, MCF7, SRB assay, 96 h of treatment, MCF-7; for Selectivity index (SI) MCF-7: SI = EC50 (NIH 3T3)/EC50 (MCF-7)
Method: as §1, §2, §3

[4] = tested on: non-malignant mouse fibroblasts NIH 3T3; test: SRB cytotoxicity assay, NIH 3T3; assay type: cell-based; conditions: NIH3T3, 96 h of treatment
Method: as §1, §2, §3

[5] = tested on: A2780 (ovarian carcinoma); test: SRB cytotoxicity assay, A2780; assay type: cell-based, human; conditions: for EC50: Homo sapiens, SRB assay, 96 h of treatment, A2780; for Selectivity index (SI) A2780: SI = EC50 (NIH 3T3)/EC50 (A2780)
Method: as §1, §2, §3

SMILES	EC50 [1] [nM]	Selectivity index (SI) HT29 [1]	melting point	EC50 [2] [nM]	Selectivity index (SI) 8505C [2]	EC50 (518A2 (melanoma)) [nM]	Selectivity index (SI) 518A2 (518A2 (melanoma))	EC50 [3] [nM]	Selectivity index (SI) MCF-7 [3]	EC50 [4] [nM]	EC50 [5] [nM]	Selectivity index (SI) A2780 [5]
C=C(C)C1CC[C@]2(C(=O)NCCN3CCCCC3)CC[C@]3(C)C(CCC4[C@@]5(C)CC[C@H](OC(C)=O)C(C)(C)C5CC[C@]43C)C12 (stereo partly drawn) [Compound 20, (3β)-N-(2-Piperidin-1-ylethyl)-3-acetyloxy-lup-20(29)-en-28-amide]	800 ± 100	1.50	124 to 127 °C	3000 ± 360	0.40	3100 ± 300	0.39	1500 ± 500	0.80	1200 ± 200	1600 ± 200	0.75
C[C@@H]1CC[C@]2(C(=O)NCCOCCN)CC[C@]3(C)C(=CCC4[C@@]5(C)CC[C@H](O)C(C)(C)C5CC[C@]43C)C2[C@H]1C (stereo partly shown) [Compound 16]	3100 ± 300	2.42	126 to 129 °C	10600 ± 1100	0.71	9900 ± 200	0.76	6300 ± 600	1.19	7500 ± 800	6500 ± 1400	1.15
C=C(C)C1CC[C@]2(C(=O)NCCN3CCCC3)CC[C@]3(C)C(CCC4[C@@]5(C)CC[C@H](OC(C)=O)C(C)(C)C5CC[C@]43C)C12 (stereo partly drawn) [Compound 19, (3β)-N-(2-Pyrrolidin-1-ylethyl)-3-acetyloxy-lup-20(29)-en-28-amide]	500 ± 80	2.40	143 to 145 °C	1600 ± 90	0.75	1500 ± 100	0.80	1200 ± 200	1.00	1200 ± 70	1400 ± 90	0.86
C=C(C)C1CC[C@]2(C(=O)NCCN3CCNCC3)CC[C@]3(C)C(CCC4[C@@]5(C)CC[C@H](O)C(C)(C)C5CC[C@]43C)C12 (stereo partly drawn) [Compound 28, (3β)-N-(2-Piperazin-1-ylethyl)-3-hydroxy-lup-20(29)-en-28-amide]	800 ± 180	1.00	146 to 148 °C (dec.)	850 ± 170	0.94	900 ± 210	0.89	300 ± 20	2.67	800 ± 220	800 ± 40	1.00
C[C@H]1[C@H](C)CC[C@]2(C(=O)O)CC[C@]3(C)C(=CC[C@@H]4[C@@]5(C)CC[C@H](O)C(C)(C)[C@@H]5CC[C@]43C)[C@H]12 [UA, ursolic acid]	10600 ± 700	1.76		13500 ± 1500	1.39	14700 ± 100	1.27	12700 ± 100	1.47	18700 ± 1600	11700 ± 600	1.59
C=C(C)C1CC[C@]2(C(=O)NCCN)CC[C@]3(C)C(CCC4[C@@]5(C)CC[C@H](O)C(C)(C)C5CC[C@]43C)C12 (stereo partly drawn) [Compound 24, (3β)-N-(2-Aminoethyl)-3-hydroxy-lup-20(29)-en-28-amide]	400 ± 20	1.00		400 ± 70	1.00	400 ± 10	1.00	400 ± 20	1.00	400 ± 20	400 ± 30	1.00
C=C(C)[C@@H]1CC[C@]2(C(=O)O)CC[C@]3(C)[C@H](CC[C@@H]4[C@@]5(C)CC[C@H](O)C(C)(C)[C@@H]5CC[C@]43C)[C@@H]12 [BA, betulinic acid, reference compound]	14400 ± 2300	0.91				9400 ± 700	1.39	10200 ± 1200	1.28	13100 ± 1100	8800 ± 900	1.49
C=C(C)C1CC[C@]2(C(=O)NCCN3CCCCC3)CC[C@]3(C)C(CCC4[C@@]5(C)CC[C@H](O)C(C)(C)C5CC[C@]43C)C12 (stereo partly drawn) [Compound 27, (3β)-N-(2-Piperidin-1-ylethyl)-3-hydroxy-lup-20(29)-en-28-amide]	400 ± 30	1.00		800 ± 90	0.50	500 ± 100	0.80	400 ± 10	1.00	400 ± 10	400 ± 100	1.00
COc1cccc2c1C(=O)c1c(O)c3c(c(O)c1C2=O)C[C@@](O)(C(=O)CO)C[C@@H]3O[C@H]1C[C@H](N)[C@H](O)[C@H](C)O1 [DRC, doxorubicin hydrochloride, reference compound]	900 ± 200	0.07		1100 ± 400	0.05	200 ± 50	0.30	1100 ± 300	0.05	60 ± 30	10 ± 10	6.00
C=C(C)C1CC[C@]2(C(=O)NCCN)CC[C@]3(C)C(CCC4[C@@]5(C)CC[C@H](OC(C)=O)C(C)(C)C5CC[C@]43C)C12 (stereo partly drawn) [Compound 17, (3β)-N-(2-Aminoethyl)-3-acetyloxy-lup-20(29)-en-28-amide]	1000 ± 300	1.40		2500 ± 30	0.56	1600 ± 100	0.88	1300 ± 60	1.08	1400 ± 100	1400 ± 200	1.00
